Drawing on patent US9403827B2, “Substituted purinone compounds” (NOVARTIS AG, priority 2013, dated 2016), this text covers IC50 for 20 molecules.

As a reminder, the IC50 is the concentration at which inhibition is half-maximal.

T1 sequence (Q00987 2-188): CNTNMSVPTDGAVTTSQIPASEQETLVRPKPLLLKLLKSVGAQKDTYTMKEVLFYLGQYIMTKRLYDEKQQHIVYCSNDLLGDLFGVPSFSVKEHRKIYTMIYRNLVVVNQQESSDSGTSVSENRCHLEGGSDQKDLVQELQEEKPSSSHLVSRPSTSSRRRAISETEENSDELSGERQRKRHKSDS

The first test has as its target T1, human MDM2 protein (amino acids 2-188) (Homo sapiens (Human), UniProt Q00987). Nature of the test: TR-FRET p53-MDM2 Assay 1. The test is classed as binding. The following applies: 1.25 nM MDM2-biotinylated, 10 nM Cy5-p53 peptide. As for the experimental part: (§1) Time Resolved Fluorescence Energy Transfer (TR-FRET) Assay
(§2) The inhibition of p53-MDM2 and p53-MDM4 interactions is measured by time resolved fluorescence energy transfer (TR-FRET). Fluorescence energy transfer (or Foerster resonance energy transfer) describes an energy transfer between donor and acceptor fluorescent molecules. For this assay, human MDM2 protein (amino acids 2-188) and human MDM4 protein (amino acids 2-185), tagged with a C-terminal biotin moiety, are used in combination with a Europium labeled streptavidin (Perkin Elmer, Inc., Waltham, Mass., USA) serving as the donor fluorophore. The p53 derived, Cy5 labeled peptide Cy5-TFSDLWKLL (p53 aa18-26) is the energy acceptor. Upon excitation of the donor molecule at 340 nm, binding interaction between MDM2 or MDM4 and the p53 peptide induces energy transfer and enhanced response at the acceptor emission wavelength at 665 nm.
(§3) Disruption of the formation of the p53-MDM2 or p53-MDM4 complex due to an inhibitor molecule binding to the p53 binding site of MDM2 or MDM4 results in increased donor emission at 620 nm. The ratiometric FRET assay readout is calculated from the raw data of the two distinct fluorescence signals measured in time resolved mode (fluorescence 665 nm/fluorescence 620 nm×1000).
(§4) The test is performed in white 384-well plates (Greiner Bio-One, reference 781207) in a total volume of 60 μL by adding 1 μL of compounds tested at different concentrations diluted in 100% DMSO (1.7% final DMSO concentration) in reaction buffer (PBS, 125 mM NaCl, 0.001% Novexin (consists of carbohydrate polymers), designed to increase the solubility and stability of proteins; Expedeon Ltd., Cambridgeshire, United Kingdom), 0.01% Gelatin, 0.01% 0.2%, Pluronic F-127 (block copolymer from ethylenoxide and propyleneoxide), 1 mM DTT). After addition of 1.25 nM MDM2-biotinylated or 2.5 nM MDM4-biotinylated (internal preparations, both MDM2 and MDM4 are biotinylated at the C-terminal of the peptide construct), and 0.625 nM Europium labeled streptavidin (Perkin Elmer), the solution is pre-incubated for 15 minutes at room temperature, then 10 nM Cy5-p53 peptide (internal preparation, the Cy5 dye is directly bound to the N-terminal part of p53 peptide construct) is added before an incubation at room temperature for 15 minutes prior to reading the plate. For measurement of samples, a Victor II microplate reader (Perkin Elmer) is used with the following settings: Excitation 340 nm, Emission Donor 620 nm and Emission Acceptor 665 nm. IC50 values are calculated by curve fitting using XLfit. If not specified, reagents are purchased from Sigma-Aldrich Chemie GmBH, Buchs, Switzerland.
(§5) This assay was used to evaluate compounds displaying inhibition of p53-MDM2 interaction and p53-MDM4 interaction at IC50s of 0.005 to 50 μM (p53-MDM2 Assay 1 and p53-MDM4 Assay 1, respectively). For selected compounds displaying IC50s between […] on MDM2, a slightly modified assay is used with the following adaptations: 0.1 nM MDM2, 0.1 nM Europium labeled streptavidin and Tecan genios Pro is used as a microplate reader for the fluorescence measurements (p53-MDM2 Assay 2).
Consider `CC(C)n1c(Br)nc2c1C(c1ccc(Cl)cc1)N(c1cccc(Cl)c1F)C(=O)N2` (centres unmarked) [Example 5, 8-Bromo-1-(3-chloro-2-fluorophenyl)-6-(4-chlorophenyl)-7-isopropyl-6,7-dihydro-1H-purin-2(3H)-one], for which the IC50 was 0.12 µM.

The target of the next test is T1, human MDM2 protein (amino acids 2-188). Nature of the test: TR-FRET p53-MDM2 Assay 2 (modified: 0.1 nM MDM2). The conditions noted are these: 0.1 nM MDM2, 0.1 nM Europium labeled streptavidin, Tecan genios Pro reader. The test is classed as binding. How it is done: as §1, §2, §3, §4, §5
(In general: TR-FRET usually uses a lanthanide donor and a delayed reading to cut background.)
As to `COc1nc(N(C)C)ncc1-c1nc2c(n1C(C)C)C(c1ccc(Cl)c(F)c1)N(c1ccc(F)c(Cl)c1)C(=O)N2` (centres unmarked) [Example 23, 6-(4-Chloro-3-fluorophenyl)-1-(3-chloro-4-fluorophenyl)-8-(2-(dimethylamino)-4-methoxypyrimidin-5-yl)-7-isopropyl-6,7-dihydro-1H-purin-2(3H)-one], the half-inhibitory concentration (IC50) is 0.385 nM.

In the case of `COc1ccc(F)cc1-c1nc2c(n1C(C)C)C(c1ccc(Cl)cc1C)N(c1cc(Cl)ccc1C)C(=O)N2` (centres unmarked) [Example 7, 1-(5-Chloro-2-methyl-phenyl)-6-(4-chloro-2-methyl-phenyl)-8-(5-fluoro-2-methoxy-phenyl)-7-isopropyl-1,3,6,7-tetrahydro-purin-2-one], the half-maximal inhibitory concentration (IC50) was 0.531 nM.

`COc1ccccc1-c1nc2c(n1C(C)C)C(c1ccc(C#N)cc1)N(c1cccc(Cl)c1F)C(=O)N2` (centres unmarked) [Example 14, 4-(1-(3-Chloro-2-fluorophenyl)-7-isopropyl-8-(2-methoxyphenyl)-2-oxo-2,3,6,7-tetrahydro-1H-purin-6-yl)benzonitrile]: the IC50 worked out at 0.473 nM.

Regarding `COc1ccc(C(=O)NCCO)cc1-c1nc2c(n1C(C)C)C(c1ccc(Cl)cc1C)N(c1cc(Cl)ccc1C)C(=O)N2` (centres unmarked) [Example 8, 3-[1-(5-Chloro-2-methyl-phenyl)-6-(4-chloro-2-methyl-phenyl)-7-isopropyl-2-oxo-2,3,6,7-tetrahydro-1H-purin-8-yl]-N-(2-hydroxy-ethyl)-4-methoxy-benzamide], the half-inhibitory concentration (IC50) stood at 0.447 nM.

For `COc1nc(N)ncc1-c1nc2c(n1C(C)C)C(c1ccc(Cl)cc1)N(c1cc(Cl)cn(C)c1=O)C(=O)N2` (centres unmarked) [Example 21, 8-(2-Amino-4-methoxypyrimidin-5-yl)-1-(5-chloro-1-methyl-2-oxo-1,2-dihydropyridin-3-yl)-6-(4-chlorophenyl)-7-isopropyl-6,7-dihydro-1H-purin-2(3H)-one], the IC50 is 4.3 nM.

For `COc1nc(N(C)C)ncc1-c1nc2c(n1C(C)C)C(c1ccc(Cl)c(F)c1)N(c1cc(Cl)c[nH]c1=O)C(=O)N2` (centres unmarked) [Example 20, 1-(5-Chloro-2-oxo-1,2-dihydropyridin-3-yl)-6-(4-chloro-3-fluorophenyl)-8-(2-(dimethylamino)-4-methoxypyrimidin-5-yl)-7-isopropyl-6,7-dihydro-1H-purin-2(3H)-one], the concentration for half-maximal inhibition (IC50) is 0.354 nM.

With `COc1ncc(-c2nc3c(n2C(C)C)C(c2ccc(Cl)c(F)c2)N(c2cc(Cl)c[nH]c2=O)C(=O)N3)c(OC)n1` (centres unmarked) [Example 25, 1-(5-Chloro-2-oxo-1,2-dihydropyridin-3-yl)-6-(4-chloro-3-fluorophenyl)-8-(2,4-dimethoxypyrimidin-5-yl)-7-isopropyl-6,7-dihydro-1H-purin-2(3H)-one], the IC50 is 0.356 nM.

Turning to `COc1nc(N(C)C)ncc1-c1nc2c(n1C(C)C)C(c1ccc(Cl)c(F)c1)N(c1cc(Cl)cn(C)c1=O)C(=O)N2` (centres unmarked) [Example 24, 1-(5-Chloro-1-methyl-2-oxo-1,2-dihydropyridin-3-yl)-6-(4-chloro-3-fluorophenyl)-8-(2-(dimethylamino)-4-methoxypyrimidin-5-yl)-7-isopropyl-6,7-dihydro-1H-purin-2(3H)-one], the 50% inhibitory concentration (IC50) came to 0.748 nM.

For `COc1ncc(-c2nc3c(n2C(C)C)C(c2ccc(Cl)c(F)c2)N(c2cc(Cl)cn(C)c2=O)C(=O)N3)c(OC)n1` (centres unmarked) [Example 17, 1-(5-Chloro-1-methyl-2-oxo-1,2-dihydropyridin-3-yl)-6-(4-chloro-3-fluorophenyl)-8-(2,4-dimethoxypyrimidin-5-yl)-7-isopropyl-6,7-dihydro-1H-purin-2(3H)-one], the concentration for half-maximal inhibition (IC50) came out at 1.67 nM.

For `COc1ccc(CO)cc1-c1nc2c(n1C(C)C)C(c1ccc(Cl)cc1C)N(c1cc(Cl)ccc1C)C(=O)N2` (centres unmarked) [Example 11, 1-(5-Chloro-2-methyl-phenyl)-6-(4-chloro-2-methyl-phenyl)-8-(5-hydroxymethyl-2-methoxy-phenyl)-7-isopropyl-1,3,6,7-tetrahydro-purin-2-one], the concentration for half-maximal inhibition (IC50) was 0.371 nM.

For `COc1nc(N(C)C)ncc1-c1nc2c(n1C(C)C)C(c1ccc(Cl)cc1)N(c1cc(Cl)cn(C)c1=O)C(=O)N2` (centres unmarked) [Example 22, 1-(5-Chloro-1-methyl-2-oxo-1,2-dihydropyridin-3-yl)-6-(4-chlorophenyl)-8-(2-(dimethylamino)-4-methoxypyrimidin-5-yl)-7-isopropyl-6,7-dihydro-1H-purin-2(3H)-one], the IC50 was found to be 0.587 nM.

In the case of `COc1ccc(C(=O)N(C)C)cc1-c1nc2c(n1C(C)C)C(c1ccc(Cl)cc1C)N(c1cc(Cl)ccc1C)C(=O)N2` (centres unmarked) [Example 10, 3-[1-(5-Chloro-2-methyl-phenyl)-6-(4-chloro-2-methyl-phenyl)-7-isopropyl-2-oxo-2,3,6,7-tetrahydro-1H-purin-8-yl]-4-methoxy-N,N-dimethyl-benzamide], the half-maximal inhibitory concentration (IC50) was 0.432 nM.

In the case of `COc1ccccc1-c1nc2c(n1C(C)C)C(c1ccc(C#N)cc1)N(c1cc(Cl)ccc1C)C(=O)N2` (centres unmarked) [Example 13, 4-[1-(5-Chloro-2-methyl-phenyl)-7-isopropyl-8-(2-methoxy-phenyl)-2-oxo-2,3,6,7-tetrahydro-1H-purin-6-yl]-benzonitrile], the concentration for half-maximal inhibition (IC50) came out at 0.724 nM.

For `COc1ncc(-c2nc3c(n2C(C)C)C(c2ccc(Cl)c(F)c2)N(c2ccc(F)c(Cl)c2)C(=O)N3)c(OC)n1` (centres unmarked) [Example 15, 6-(4-Chloro-3-fluorophenyl)-1-(3-chloro-4-fluorophenyl)-8-(2,4-dimethoxypyrimidin-5-yl)-7-isopropyl-6,7-dihydro-1H-purin-2(3H)-one], the IC50 amounted to 0.451 nM.

On to `COc1ncc(-c2nc3c(n2C(C)C)C(c2ccc(Cl)cc2C)N(c2cc(Cl)c(=O)n(C)c2)C(=O)N3)c(OC)n1` (centres unmarked) [Example 16, 1-(5-Chloro-1-methyl-6-oxo-1,6-dihydro-pyridin-3-yl)-6-(4-chloro-2-methyl-phenyl)-8-(2,4-dimethoxy-pyrimidin-5-yl)-7-isopropyl-1,3,6,7-tetrahydro-purin-2-one], for which the concentration for half-maximal inhibition (IC50) was 3.11 nM.

Take `COc1ncc(-c2nc3c(n2C(C)C)C(c2ccc(Cl)cc2)N(c2cc(Cl)cn(C)c2=O)C(=O)N3)c(OC)n1` (centres unmarked) [Example 18, 1-(5-Chloro-1-methyl-2-oxo-1,2-dihydropyridin-3-yl)-6-(4-chlorophenyl)-8-(2,4-dimethoxypyrimidin-5-yl)-7-isopropyl-6,7-dihydro-1H-purin-2(3H)-one]: the 50% inhibitory concentration (IC50) is 2.91 nM.

As to `COc1ccc(C#N)cc1-c1nc2c(n1C(C)C)C(c1ccc(Cl)cc1C)N(c1cc(Cl)ccc1C)C(=O)N2` (centres unmarked) [Example 12, 3-[1-(5-Chloro-2-methyl-phenyl)-6-(4-chloro-2-methyl-phenyl)-7-isopropyl-2-oxo-2,3,6,7-tetrahydro-1H-purin-8-yl]-4-methoxy-benzonitrile], the 50% inhibitory concentration (IC50) stood at 0.414 nM.

On to `CNC(=O)c1ccc(OC)c(-c2nc3c(n2C(C)C)C(c2ccc(Cl)cc2C)N(c2cc(Cl)ccc2C)C(=O)N3)c1` (centres unmarked) [Example 9, 3-[1-(5-Chloro-2-methyl-phenyl)-6-(4-chloro-2-methyl-phenyl)-7-isopropyl-2-oxo-2,3,6,7-tetrahydro-1H-purin-8-yl]-4-methoxy-N-methyl-benzamide], for which the 50% inhibitory concentration (IC50) is 0.21 nM.

In the case of `COc1ncc(-c2nc3c(n2C(C)C)C(c2ccc(Cl)c(F)c2)N(c2cc(Cl)c(=O)n(C)c2)C(=O)N3)c(OC)n1` (centres unmarked) [Example 19, 1-(5-Chloro-1-methyl-6-oxo-1,6-dihydropyridin-3-yl)-6-(4-chloro-3-fluorophenyl)-8-(2,4-dimethoxypyrimidin-5-yl)-7-isopropyl-6,7-dihydro-1H-purin-2(3H)-one], the IC50 was 0.93 nM.
